One data set deals with α1-adrenoceptors. In words: Inhibition of 3H-prazosin binding to α1-adrenoceptors in rat brain in vitro. The note with it: 3H-prazosin 0.25 nM, membranes from rat brain. How it is done:
Method and results in Hyttel & Larsen, J. Neurochem.
The tissue is homogenized (Ultra Turrax, 10 se) in 10 mL of ice cold 50 mM tris buffer pH 7.7 (at 25° C.). The homogenate is centrifuged twice at 20,000 g for 10 min at 4° C. with rehomogenization of the pellet in 10 ml icecold buffer. The final pellet is homogenized in 250 vol (w/v) icecold buffer.
The binding experiment is initiated by addition of […] of tissue suspension (final tissue content corresponds to 3 mg original tissue) and by placing the 96 deep well titer plate in a 25 ° C. water bath. All tests are made in triplicates. After incubation for 20 min, the samples are filtered on a Brandel harvester under vacuum (18 inch. Hg) through printed filtermat B (13 mm). Titerplates and filter are washed 1×10 sec flow 50 L/h with ice cold buffer.
The filter mat is dried for 1 h at 110° C. and then placed in a sample bag with Meltilex B/HS (14.5 g) and melted together on the T-Tray heat sealer.
(§1) For determination of the inhibition of binding, five concentrations of drugs covering 3 decades are used.

In a further data set the target is T1, dopamine D2 receptors (Rattus norvegicus, UniProt P61169).
T1 construct: Male Wistar (Mol:Wistar) rats (125-250 g) are sacrificed and striatal tissue is dissected and weighed; from tissue; host or cells: rat corpus striatum membranes (male Wistar rats)
T1 sequence (P61169 whole entry): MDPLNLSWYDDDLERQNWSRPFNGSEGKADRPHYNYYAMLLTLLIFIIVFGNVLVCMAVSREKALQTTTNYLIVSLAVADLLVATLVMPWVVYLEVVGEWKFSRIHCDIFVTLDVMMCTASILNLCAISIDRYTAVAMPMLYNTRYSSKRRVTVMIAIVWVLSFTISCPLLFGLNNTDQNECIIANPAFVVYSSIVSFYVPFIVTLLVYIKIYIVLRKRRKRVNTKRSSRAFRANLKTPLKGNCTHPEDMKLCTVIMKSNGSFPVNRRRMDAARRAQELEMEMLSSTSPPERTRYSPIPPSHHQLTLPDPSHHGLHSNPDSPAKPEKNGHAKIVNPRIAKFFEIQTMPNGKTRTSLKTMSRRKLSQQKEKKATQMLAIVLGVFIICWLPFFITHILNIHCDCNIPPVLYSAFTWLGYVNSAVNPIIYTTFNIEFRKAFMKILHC
Description: Inhibition of 3H-spiperone binding to dopamine D2 receptors in rat corpus striatum in vitro. The note with it: 3H-spiperone 0.5 nM, membranes from rat corpus striatum; read-out: IC50 values in nM, D2. As for the experimental part:
Inhibition of ^3H-Spiperone Binding to Dopamine D2 Receptors in Rat Corpus Striatum in vitro
By this method, the inhibition by drugs of the binding of ^3H -spiperone (=^3H-spiro-peridol) (0.5 nM) to dopamine D-2 receptors in membranes from rat corpus striatum is determined in vitro. […] Pharmacol. Toxicol. […] This is a test for dopamine D2 receptor binding affinity in vitro.
The tissue is homogenized (Ultra Turrax, 10 sec.) in 10 mL of ice-cold 50 mM K-phosphate buffer pH 7.4 (at 25° C.). The homogenate is centrifuged twice at 20,000 g for 10 min at 4° C. with rehomogenization of the pellet in 10 mL ice-cold buffer. The final pellet is homogenized in 1300 vol (w/v) ice-cold buffer.
The binding experiment is initiated by addition of 100 μl of ^3H-spiperone (final concentration 0.5 nM) and by placing the tubes in a 37° C. water bath. […] The tubes are rinsed with 5 mL ice-cold buffer which are then poured on the filters. Thereafter, the filters are washed with 2×5 mL of buffer. The filters are placed in counting vials and 4 mL of appropriate scintillation fluid (e.g. Picofluor ™15) are added. After shaking for 1 h and storage for 2 hrs in the dark, the content of radioactivity is determined by liquid scintillation counting. Specific binding is obtained by subtracting the nonspecific binding in the presence of 10 μM of 6,7-ADTN.
For determination of the inhibition of binding, five concentrations of drugs covering 3 orders of magnitude are used.
England, specific activity 15-25 Ci/mmol.

In data set [1] the target is T2, serotonin S2 (5-HT2A) receptors (Rattus norvegicus, UniProt P14842).
T2 construct: Male Wistar (Mol:Wist) rats (125-250 g) are sacrificed and cortical tissue is dissected and weighed; from tissue; host or cells: rat cortex membranes (male Wistar rats)
T2 sequence (P14842 whole entry): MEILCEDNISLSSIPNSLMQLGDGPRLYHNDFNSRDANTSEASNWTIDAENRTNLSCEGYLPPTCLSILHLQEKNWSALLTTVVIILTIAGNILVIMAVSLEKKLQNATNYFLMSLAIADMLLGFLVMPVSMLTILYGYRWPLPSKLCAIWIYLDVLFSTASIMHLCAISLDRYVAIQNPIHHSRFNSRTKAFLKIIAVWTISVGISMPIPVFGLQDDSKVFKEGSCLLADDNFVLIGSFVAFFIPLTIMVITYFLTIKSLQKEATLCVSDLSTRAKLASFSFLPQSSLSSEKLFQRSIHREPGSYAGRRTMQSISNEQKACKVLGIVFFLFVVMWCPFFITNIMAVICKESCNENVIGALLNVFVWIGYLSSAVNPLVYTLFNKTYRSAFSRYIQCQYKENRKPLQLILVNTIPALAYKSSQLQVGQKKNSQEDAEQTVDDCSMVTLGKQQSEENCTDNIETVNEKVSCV
In words: Inhibition of 3H-ketanserin binding to serotonin S2 (5-HT2A) receptors in rat cortex in vitro. The note with it: 3H-ketanserin 0.5 nM, membranes from rat cortex; read-out: IC50 values in nM, 5-HT2A. As for the experimental part:
Inhibition of ^3H-Ketanserin Binding to Serotonin S2 (5-HT2Å) Receptors in Rat Cortex in vitro
By this method the inhibition by drugs of the binding of ^3H-ketanserin (0.5 nM) to serotonin S2 (5-HT2) receptors in membranes from rat cortex is determined in vitro.
The tissue is homogenized (Ultra Turrax, 10 sec) in 10 mL of ice cold 50 mM tris buffer pH 7.7 (at 25° C.). The centrifuge glassware used in this step has been rinsed by sonication for 10 min in ethanol. The homogenate is centrifuged twice at 20,000 g for 10 min. at 4° C., with rehomogenization of the pellet in 10 mL icecold buffer. The final pellet is homogenized in 250 vol (w/v) icecold buffer.
Incubation tubes (96 deep well titer plate) kept on ice receive […] of ^3H ketanserin (final concentration 0.5 nM).
The binding experiment is initiated by addition of […] of tissue suspension (final tissue content corresponds to 4 mg original tissue) and by placing the 96 deep well titer plate in a 37° C. water bath. All tests are made in triplicates.
After incubation for 30 min, the samples are filtered on a Brandel harvester under vacuum (18 inch. Hg) through printed filter mat B (13 mm). Titerplate and filter are washed 2×10 sec. flow 50 L/h with ice cold buffer.
The printed filter mat with purred labelled tissue are dried for 1 h at 110° C. and hereafter placed in a sample bag with Meltilex B/HS 14.5 g and melted together on the T-tray heat seal.
Specific binding is obtained by subtracting the nonspecific binding in the presence of 1 mM mianserin.
as §1
^3H-ketanserin=(ethylene-^3H)-ketanserin hydrochloride from New England Nuclear, specific activity 60-80 Ci/mmol.

IC50 and melting point data for eleven compounds are collected here from US6602889B1, “5-heteroaryl substituted indoles” (H. Lundbeck A.S., priority 1998, dated 2003).

Structures can show the parent of a compound that is named as a salt.

By IC50 is commonly meant the midpoint of a concentration-inhibition curve. As to `Cn1nnnc1Cc1ccc2c(c1)c(C1CCN(CCN3CCNC3=O)CC1)cn2-c1ccc(F)cc1` [Compound 23c, 1-[2-[4-[(-(4-fluorophenyl)-5-[(1-methyltetrazol-5-yl)methyl]-1H-indol-3-yl]-1-piperidinyl]ethyl]-2-imidazolidinone 2.5 fumarate], the IC50 on α1-adrenoceptors came out at 0.5 nM; on dopamine D2 receptors, 3.7 nM; in data set [1], 8.3 nM.

As a reminder, the melting point is the temperature of the solid-liquid transition. In turn, `Cn1nnc(-c2ccc3c(c2)c(C2=CCN(CCN4CCNC4=O)CC2)cn3-c2ccncc2)n1` [Compound 5a, 1-[2-[4-[5-(2-Methyltetrazol-5-yl)-1-(4-pyridyl)-1H-indol-3-yl]-1,2,3,6-tetrahydro-1-pyridinyl]ethyl]-2-imidazolidinone] came in with a melting point of 177 to 178 °C. On α1-adrenoceptors, this compound yielded an IC50 of 12 nM. In addition, the IC50 on dopamine D2 receptors is above 100 nM. Moreover, the IC50 in data set [1] was above 100 nM.

With `CCn1ncc(-c2ccc3c(c2)c(C2=CCN(CCN4CCNC4=O)CC2)cn3-c2ccc(F)cc2)n1` [Compound 22i, 1-[2-[4-[5-(2-ethyltriazol-4-yl)-1-(4-fluorophenyl)-1H-indol-3-yl]-1,2,3,6-tetrahydropyridin-1-yl]ethyl]-2-imidazolidinone], the melting point was in the range of 143 to 145 °C. Besides, on dopamine D2 receptors, the IC50 is 51 nM. The IC50 in data set [1] was found to be 22 nM.

As for `COc1cc2nc(N3CCN(C(=O)c4ccco4)CC3)nc(N)c2cc1OC` [Prazosin, prazosin, reference compound], the results for the IC50 at α1-adrenoceptors and on dopamine D2 receptors were 0.36 nM and 11000 nM, respectively.

For `CN1CCC(c2cn(-c3ccc(F)cc3)c3ccc(-c4nnn(C)n4)cc23)CC1` [Compound 23b, 1-(4-fluorophenyl)-3-(1-methyl-4-piperidinyl)-5-(2-methyltetrazol-5-yl)-1H-indole], the IC50 at α1-adrenoceptors was 7.1 nM; on dopamine D2 receptors it was above 100 nM; in data set [1], above 100 nM.

The compound `Cn1ncc(-c2ccc3c(c2)c(C2=CCN(CCN4CCNC4=O)CC2)cn3-c2ccc(F)cc2)n1` [Compound 22g, 1-[2-[4-[1-(4-fluorophenyl)-5-(2-methyltriazol-4-yl)-1H-indol-3-yl]-1,2,3,6-tetrahydropyridin-1-yl]ethyl]-2-imidazolidinone] yielded a melting point of 175 to 177 °C. Besides, the IC50 on dopamine D2 receptors came out at 28 nM. The IC50 in data set [1] amounted to 94 nM.

In the case of `O=C1NCCN1CCN1CCC(c2cn(-c3ccc(F)cc3)c3ccc(Cl)cc23)CC1` [Sertindole, sertindole, reference compound], the IC50 on α1-adrenoceptors worked out at 3.4 nM.

As to `Cn1nnc(-c2ccc3c(c2)c(C2=CCN(CCN4CCNC4=O)CC2)cn3-c2ccc(F)cc2)n1` [Compound 22a, 1-[2-[4-[1-(4-Fluorophenyl)-5-(2-methyltetrazol-5-yl)-1H-indol-3-yl]-1,2,3,6-tetrahydropyridin-1-yl]ethyl]-2-imidazolidinone], the IC50 on α1-adrenoceptors stood at 1.5 nM; at dopamine D2 receptors, 37 nM; in data set [1], 210 nM.

In turn, `Cn1nnnc1Cc1ccc2c(c1)c(C1CCN(CCN3CCNC3=O)CC1)cn2-c1ccc(F)cc1` (as salt: fumarate) [Compound 23c, 1-[2-[4-[(-(4-fluorophenyl)-5-[(1-methyltetrazol-5-yl)methyl]-1H-indol-3-yl]-1-piperidinyl]ethyl]-2-imidazolidinone 2.5 fumarate] yielded a melting point of 169 to 171 °C.

For `Cn1nnc(CCN2CC=C(c3cn(-c4ccc(F)cc4)c4ccc(-c5nnn(C)n5)cc34)CC2)n1` [Compound 17a, 1-(4-Fluorophenyl)-5-(2-methyltetrazol-5-yl)-3-[1-[2-(2-methyltetrazo-5-yl)ethyl]-1,2,3,6-tetrahydropyridin-4-yl]-1H-indole], the IC50 on α1-adrenoceptors worked out at 4 nM; on dopamine D2 receptors, 20 nM; in data set [1], 70 nM.

For `Cn1nnc(-c2ccc3c(c2)c(C2=CCN(CCc4nnnn4C)CC2)cn3-c2ccc(F)cc2)n1` [Compound 17b, 1-(4-Fluorophenyl)-5-(2-methyltetrazol-5-yl)-3-[1-[2-(1-methyltetrazol-5-yl)ethyl]-1,2,3,6-tetrahydropyridin-4-yl]-1H-indole, fumarate], the IC50 turned out to be 4.9 nM at α1-adrenoceptors, 97 nM on dopamine D2 receptors and 450 nM in data set [1].
